Reference: EP0544958A1, “Cephalosporin compounds and processes for preparing the same” (TANABE SEIYAKU CO., LTD., priority 1991, dated 1993)
Structures can show the parent of a compound that is named as a salt.

What was measured:
[1] = system: Citrobacter freundii GN346; experiment: antimicrobial activity against β-lactamase-producing bacteria compared with ceftazidime; type: cell-based; details: relative to ceftazidime
[2] = system: Staphylococcus epidermidis Kawamura; experiment: antimicrobial activity compared with ceftazidime; type: cell-based; details: relative to ceftazidime
[3] = system: clinical isolates of MRSA; experiment: antibacterial activity (90 % inhibitory concentration) against clinical isolates; type: cell-based, methicillin resistant Staphylococcus aureus (MRSA); details: relative to ceftazidime
mice = experiment: acute toxicity by intravenous administration; type: in vivo; details: dose of 1 g/kg, five mice, within five days after administration
Description: Moreover, the desired compounds [I] or pharmaceutically acceptable salts thereof have high absorbability in the living tissue, and the treatment effects thereof last for a long time so that the compounds [I] of the present invention show an excellent defense effect in infectious diseases caused by various microorganisms including Staphylococcus aureus and Pseudomonas aeruginosa. In addition, the desired compounds [I] of the present invention and pharmaceutically acceptable salts thereof have low toxicity and show high safety as medicaments.

[4] = system: Staphylococcus aureus 209P JC-1; experiment: antimicrobial activity compared with ceftazidime; type: cell-based; details: relative to ceftazidime

Row | SMILES | antimicrobial activity, times stronger than ceftazidime [1] | antimicrobial activity, times stronger as compared with ceftazidime [2] | antibacterial activity (90 % inhibitory concentration), times superior to that of ceftazidime [3] | acute toxicity (mice that died) (mice) | antimicrobial activity, times stronger as compared with ceftazidime [4]
1 | Nc1nc(/C(=N/OC(C(=O)O)c2ccc(O)c3[nH]c(=O)ccc23)C(=O)N[C@@H]2C(=O)N3C(C(=O)[O-])=C(C[n+]4ccccc4)CS[C@H]23)cs1 (stereo partly drawn) [Example 4, 7β-{(Z)-2-(2-aminothiazol-4-yl)-2-[(8-hydroxy-2-oxo-1H-quinolin-5-yl)(carboxy)methyloxyimino]acetamido}-3-(1-pyridiniomethyl)-3-cephem-4-carboxylic acid sodium salt] | more than 4 times | more than 16 times |  |  | 
2 | Cc1c(N)ccc[n+]1CC1=C(C(=O)[O-])N2C(=O)[C@@H](NC(=O)/C(=N\OC(C(=O)O)c3ccc(O)c4[nH]c(=O)ccc34)c3csc(N)n3)[C@H]2SC1 (stereo partly drawn) [Example 27, 7β-{(Z)-2-(2-aminothiazol-4-yl)-2-[(8-hydroxy-2-oxo-1H-quinolin-5-yl)(carboxy)methyloxyimino]acetamido}-3-(3 amino-2-methyl-1-pyridiniomethyl)-3-cephem-4-carboxylic acid sodium salt] |  | more than 16 times | about 16 times | none of the five mice | 
3 | Nc1nc(/C(=N/OC(C(=O)O)c2ccc(O)c3[nH]c(=O)ccc23)C(=O)N[C@@H]2C(=O)N3C(C(=O)[O-])=C(C[n+]4cccc5ccccc54)CS[C@H]23)cs1 (stereo partly drawn) [Example 3, 7β-{(Z)-2-(2-aminothiazol-4-yl)-2-[(8-hydroxy-2-oxo-1H-quinolin-5-yl)(caboxy)methyloxyimino]acetamido}-3-(1-quinoliniomethyl)-3-cephem-4-carboxylic acid sodium salt] | more than 4 times |  |  |  | more than 32 times
